Laboratory results published in patent US20130217678A1, “PHARMACEUTICAL AGENT COMPRISING QUINOLONE COMPOUND” (OTSUKA PHARMACEUTICAL CO., LTD., priority 2008, published 2013).

Tests used:
[1] = tested on: human neuroblastoma cell lines SH-SY5Y treated with 1-methyl-4-phenylpyridinium (MPP+); assay: Improvement of mitochondrial function (Alamar Blue mitochondrial oxidation reduction activity) in MPP+-treated SH-SY5Y cells; format: cell-based; details: 1.5 mM MPP+, relative to cells in DMSO alone = 100%, read-out: Fluorescence Intensity (%); for activity at 0.01 µg/mL: compound 0.01 μg/ml; for activity at 0.03 µg/mL: compound 0.03 μg/ml; for activity at 0.1 µg/mL: compound 0.1 μg/ml; for activity at 0.3 µg/mL: compound 0.3 μg/ml; for activity at 1 µg/mL: compound 1 μg/ml
Procedure: In human neuroblastoma cell lines SH-SY5Y in which mitochondrial function was damaged by MPP^+ treatment (Bollimuntha S. et al., J Biol Chem, 280, 2132-2140 (2005) and Shang T. et al., J Biol Chem, 280, 34644-34653 (2005)), the improvement of mitochondrial function was evaluated on the basis of the measurement value for mitochondrial oxidation reduction activity using Alamar Blue fluorescent dye after the compound addition (Nakai M. et al, Exp Neurol, 179, 103-110 (2003)).
The human neuroblastoma cell lines SH-SY5Y were cultured in Dulbecco's Modified Eagle's Medium containing 10% fetal bovine serum (DMEM containing 50 units/ml penicillin and 50 μg/ml streptomycin as antibiotics) at 37° C. in the presence of 5% carbon dioxide. Cells were scattered on a poly-D-lysine-coated 96-well black plate at a concentration of 3−6×10^4 cells/cm^2 (medium amount: 100 μl/well) and cultured in the medium for two days. Further, the medium was changed to DMEM containing a 1% N2 supplement (N2-DMEM) or to a medium (100 μl/well) in which 1.5 mM MPP^+ was dissolved. The cells were cultured therein for 39 to 48 hours, and then subjected to a mitochondrial oxidation reduction activity measurement system. A sample compound that had been previously dissolved in dimethyl sulfoxide (DMSO) was diluted with N2-DMEM and added in a volume of 10 μl/well 24 hours before the activity measurement (final compound concentration: 0.01 to 1 μg/ml).
After removal of the medium by suction, a balanced salt solution containing 10% Alamar Blue (154 mM sodium chloride, 5.6 mM potassium chloride, 2.3 mM calcium chloride, 1.0 mM magnesium chloride, 3.6 mM sodium hydrogen carbonate, 5 mM glucose, 5 mM HEPES, pH 7.2) was added in a volume of 100 μl/well, and reacted in an incubator at 37° C. for 1 hour. The fluorescent intensity was detected using a fluorescence detector (a product of Hamamatsu Photonics K.K., excitation wavelength: 530 nm, measurement wavelength: 580 nm) to thereby measure the mitochondrial oxidation reduction activity.
The fluorescent intensity of the well of the cells cultured in a medium containing MPP^+ and each of the sample compounds was relatively evaluated based on the 100% fluorescent intensity of the well of the cells cultured in a medium containing DMSO alone (final concentration: 0.1%).

[2] = tested on: dopamine transporter (DAT); assay: Dopaminergic neuronal protective activity in MPTP-treated C57BL/6 mouse: DAT protein level in striatum (Western blot); format: in vivo; details: 10 mg/kg oral at 30 min, 24 h, 48 h after MPTP s.c.; striatum 72 h after MPTP; mouse without MPTP = 100%
Procedure: (§1) Using a mouse having MPTP-induced dopaminergic neurons (Chan P. et al., J Neurochem, 57, 348-351 (1991)), the dopaminergic neuronal protective activity was evaluated based on the protein levels of tyrosine hydroxylase (TH) and dopamine transporter (DAT), which are dopaminergic neuronal marker proteins, and a dopamine content in the brain corpus striatum region after the compound administration (Mori A. et al., Neurosci Res, 51, 265-274 (2005)).
(§2) A male C57BL/6 mouse (provided by Japan Charles River Inc., 10 to 12 weeks) was used as a test animal. MPTP was dissolved in a physiological salt solution so that the concentration was 4 mg/ml, and then administered to the mouse subcutaneously in a volume of 10 ml/kg. A test compound was suspended in a 5% gum arabic/physiological salt solution (w/v) so that the concentration was 1 mg/ml. Each of the test compounds or solvents thereof was orally administered to the mouse after 30 minutes, 24 hours, and 48 hours of the MPTP administration. The mouse was decapitated after 72 hours of the MPTP administration, the brain was removed, and each side of the striatum was dissected.
(§3) The left striatum was used as a sample to detect the protein level by Western blot analysis. Each tissue was homogenized in a HEPES buffer sucrose solution (0.32 M sucrose, 4 μg/ml pepstatin, 5 μg/ml aprotinin, 20 μg/ml trypsin inhibitor, 4 μg/ml leupeptin, 0.2 mM phenylmethanesulfonyl fluoride, 2 mM ethylenediaminetetraacetic acid (EDTA), 2 mM ethylene glycol bis(β aminoethyl ether) tetraacetic acid, 20 mM HEPES, pH 7.2), and assayed for protein using a bicinchoninic acid kit for protein assay (provided by Pierce Corporation). Each homogenized sample, having an equal amount of protein that had been dissolved in a Laemmli sample buffer solution, was subjected to electrophoresis through a sodium dodecyl sulfate polyacrylamide gel. […] Subsequently, a horseradish peroxidase-labeled secondary antibody (a product of Amersham K.K.) for each primary antibody was fixed, and the chemiluminescence associated with enzyme activity of peroxidase was detected using a X-ray film. The density of the protein band on the film was analyzed using a densitometer (a product of Bio-rad Laboratories Inc.) to obtain the TH value relative to Na^+/K^+-ATPase and the DAT value relative to actin.
(§4) In both analyses, the value of the sample derived from the MPTP-induced mouse in which only the test compound or the solvent was administered was expressed relative to the value of the sample derived from the mouse without MPTP treatment (100%). Values were analyzed statistically using a nonclinical statistical analysis system, and values of significance probability less than 0.05 were defined as significant.

[3] = tested on: tyrosine hydroxylase (TH); assay: Dopaminergic neuronal protective activity in MPTP-treated C57BL/6 mouse: TH protein level in striatum (Western blot); format: in vivo; details: 10 mg/kg oral at 30 min, 24 h, 48 h after MPTP s.c.; striatum 72 h after MPTP; mouse without MPTP = 100%
Procedure: as §1, §2, §3, §4

[4] = tested on: dopamine content in the brain corpus striatum region; assay: Dopaminergic neuronal protective activity in MPTP-treated C57BL/6 mouse: dopamine content in striatum (HPLC); format: in vivo; details: 10 mg/kg oral at 30 min, 24 h, 48 h after MPTP s.c.; striatum 72 h after MPTP; mouse without MPTP = 100%
Procedure: as §1, §2
The right striatum, the tissue weight of which was measured immediately after dissection, was used as an analysis sample for determining the dopamine content. Each tissue was homogenized in a 0.1 N perchloric acid solution containing isoproterenol as an internal standard substance of the measurement, using an ultrasonic homogenizer while being cooled with ice. The supernatant obtained from 20,000 g of homogenate that had been centrifuged at 4° C. for 15 minutes was subjected to a high-performance liquid chromatography with a reversed phase column (a product of Eicom Corporation). A mobile phase 15% methanol 0.1 M citric acid/0.1 M sodium acetate buffer solution (containing 190 mg/L 1-sodium octane sulfonate and 5 mg/L EDTA, pH 3.5) was flowed at a rate of 0.5 ml/min, and the dopamine peak of each sample was detected using an electrochemical detector (applied voltage: +750 mV vs. Ag/AgCl, a product of Eicom Corporation). With reference to the identified dopamine peak, the dopamine content per tissue weight was calculated in each sample using analysis software (a product of Gilson Inc.).
as §4

| SMILES | activity at 0.01 µg/mL [1] [%] | activity at 0.03 µg/mL [1] [%] | activity at 0.1 µg/mL [1] [%] | activity at 0.3 µg/mL [1] [%] | activity at 1 µg/mL [1] [%] | Protein level of dopamine transporter (DAT) in the brain corpus striatum region (% of control) [2] | melting point [°C] | Protein level of tyrosine hydroxylase (TH) in the brain corpus striatum region (% of control) [3] | Dopamine content in the brain corpus striatum region (% of control) [4] |
| --- | --- | --- | --- | --- | --- | --- | --- | --- | --- |
| CCCOc1ccc(C2CC2)c2c(=O)c(-c3ccc(OC)cc3)c[nH]c12 [Example 65, 5-Cyclopropyl-3-(4-methoxyphenyl)-8-propoxy-1H-quinolin-4-one] | 59 | 73 | 78 | 66 | 20 | 73.0 % of control | 168 to 170 | 65.2 % of control | 31.2 % of control |
| CCCOc1ccc(C)c2c(=O)c(-c3ccc(OC)cc3)c[nH]c12 [Example 1, 3-(4-Methoxyphenyl)-5-methyl-8-propoxy-1H-quinolin-4-one] | 58 | 68 | 73 | 66 | 46 | 84.7 % of control | 192 to 193 | 86.2 % of control | 39.6 % of control |
| COc1ccc(-c2c[nH]c3c(-n4ccnc4)ccc(C)c3c2=O)cc1 [Example 67, 8-Imidazol-1-yl-3-(4-methoxyphenyl)-5-methyl-1H-quinolin-4-one] | 45 | 54 | 61 | 57 | 42 | 50.9 % of control | 196 to 198 | 77.9 % of control | 26.7 % of control |
| CCCSc1ccc(C)c2c(=O)c(-c3ccc(OC)cc3)c[nH]c12 [Example 70, 3-(4-Methoxyphenyl)-5-methyl-8-propylsulfanyl-1H-quinolin-4-one] | 48 | 56 | 61 | 50 | 22 | 64.1 % of control | 132 to 135 | 90.2 % of control | 26.5 % of control |
